The results in this text go back to ChEMBL document CHEMBL1123329, “Aromatase inhibitors. Synthesis and evaluation of mammary tumor inhibiting activity of 3-alkylated 3-(4-aminophenyl)piperidine-2,6-diones” (J Med Chem, 1986).

The species entered for test [1] is Rattus norvegicus. The format is functional. Particulars: dose 20 mg/kg.
For test [2], the species on record is Rattus norvegicus. The format is functional. To be noted: dose 20 mg/kg. This is another data set of the same source.

Structures are written as SMILES. Where “and” joins values, the source holds several entries; their conditions need not be identical. Equal values may be shown once.

With `C[C@]12CC[C@H]3[C@@H](CCC4=CC(=O)CC[C@@]43C)[C@@H]1CC[C@@H]2O` [TESTOSTERONE], the “Change of tumor area” value in the test listed under Rattus norvegicus [1] was -37% and -24% and -29%. Besides, in the test listed under Rattus norvegicus [2], the Uterine weight effect was 23.3 and 29.3 and 34.7.
